# In ChEMBL document CHEMBL1129988, “4-substituted cubylcarbinylamines: a new class of mechanism-based monoamine oxidase B inactivators” (J Med Chem, 1997):
# Assay: Partition ratio was determined
row,Structure (SMILES),Partition ratio
1,NCC12C3C4C5C3C1C5C42 (stereo not drawn),152
2,NCC12C3C4C1C1C2C3C41c1ccccc1 (stereo not drawn),277
3,NCC12C3C4C1C1C2C3C41C1CC1 (stereo not drawn),536
